Source: US12268674B2, “Mi-2β inhibitor as an immunotherapy agent” (BioVentures, LLC, priority 2021, dated 2025)

Columns and labels:
SMC1A = molecular target: T1, SMC1A (Homo sapiens, UniProt Q14683); assay: ATPase profile (ATP acyl phosphate probe); assay type: binding; conditions: SEQ ID NO: 193, ATP BS
T1 construct: to get the native cell lysate; endogenous in cells; host or cells: A375 cell lysate

NME1, NME2 = assay: ATPase profile (ATP acyl phosphate probe); assay type: binding; conditions: NME1, NME2, SEQ ID NO: 133, ATP BS
XRCC5 = molecular target: T2, XRCC5 (Homo sapiens, UniProt P13010); assay: ATPase profile (ATP acyl phosphate probe); assay type: binding; conditions: XRCC5, SEQ ID NO: 231, ATP BS
T2 construct: to get the native cell lysate; endogenous in cells; host or cells: A375 cell lysate

RFC5 = molecular target: T3, RFC5 (Homo sapiens, UniProt P40937); assay: ATPase profile (ATP acyl phosphate probe); assay type: binding; conditions: RFC5, SEQ ID NO: 186, ATP BS
T3 construct: to get the native cell lysate; endogenous in cells; host or cells: A375 cell lysate

SMC4 = molecular target: T4, SMC4 (Homo sapiens, UniProt Q9NTJ3); assay: ATPase profile (ATP acyl phosphate probe); assay type: binding; conditions: SMC4, SEQ ID NO: 195, ATP BS
T4 construct: to get the native cell lysate; endogenous in cells; host or cells: A375 cell lysate

[1] = Pharmacokinetics of Z36-MP5 in rats; assay type: in vivo; conditions: Sprague-Dawley rats; intraperitoneal 1.0 mg/kg
Procedure: Compound Z36-MP5 was evaluated in a pharmacokinetic study in male Sprague-Dawley (SD) rats following intraperitoneal injection of Z36-MP5 at 1.0 mg/kg as a solution in 5% DMSO, 30% PEG400, and 65% corn oil. Blood was collected at 0.25 h, 0.5 h, 1 h, 2 h, 4 h, 8 h, and 24 h following intraperitoneal injection. The blood samples were placed in wet ice, and serum was collected after centrifugation. Serum samples were frozen and stored at −80° C. The serum samples were analyzed utilizing HPLC-coupled tandem mass spectrometry (LC-MS/MS). Values are calculated from arithmetic mean plasma concentrations (n=3 rats per condition).

PSMC4 = PSMC4 (Homo sapiens, UniProt P43686); assay: ATPase profile (ATP acyl phosphate probe); assay type: binding; conditions: PSMC4, SEQ ID NO: 176, ATP BS
GMPS = molecular target: T5, GMPS (Homo sapiens, UniProt P49915); assay: ATPase profile (ATP acyl phosphate probe); assay type: binding
T5 construct: endogenous in cells; host or cells: A375 cell lysate

MTHFD1 = molecular target: T6, MTHFD1 (Homo sapiens, UniProt P11586); assay: ATPase profile (ATP acyl phosphate probe); assay type: binding; conditions: MTHFD1, SEQ ID NO: 125, ATP BS
T6 construct: to get the native cell lysate; endogenous in cells; host or cells: A375

NADSYN1 = molecular target: T7, NADSYN1 (Homo sapiens, UniProt Q6IA69); assay: ATPase profile (ATP acyl phosphate probe); assay type: binding; conditions: NADSYN1, SEQ ID NO: 130, ATP BS
T7 construct: to get the native cell lysate; endogenous in cells; host or cells: A375

ABCC10 = molecular target: T8, ABCC10 (Homo sapiens, UniProt Q5T3U5); assay: ATPase profile (ATP acyl phosphate probe); assay type: binding; conditions: ABCC10, SEQ ID NO: 7, ATP BS
T8 construct: to get the native cell lysate; host or cells: A375 cell lysate

DHX15 = molecular target: T9, DHX15 (Homo sapiens, UniProt O43143); assay: ATPase profile (ATP acyl phosphate probe); assay type: binding; conditions: DHX15, SEQ ID NO: 72, ATP BS
T9 construct: endogenous in cells; host or cells: A375 cell lysate

HSPA1A = molecular target: T10, HSPA1A (Homo sapiens, UniProt P0DMV8); assay: ATPase profile (ATP acyl phosphate probe); assay type: binding
T10 construct: to get the native cell lysate; endogenous in cells; host or cells: A375

PPCS = molecular target: T11, PPCS (Homo sapiens, UniProt Q9HAB8); assay: ATPase profile (ATP acyl phosphate probe); assay type: binding
T11 construct: to get the native cell lysate; endogenous in cells; host or cells: A375 cell lysate

IDI1 = molecular target: T12, IDI1 (Homo sapiens, UniProt Q13907); assay: ATPase profile (ATP acyl phosphate probe); assay type: binding; conditions: IDI1, SEQ ID NO: 111, ATP BS
T12 construct: endogenous in cells; host or cells: A375

ALDH18A1 = molecular target: T13, ALDH18A1 (Homo sapiens, UniProt P54886); assay: ATPase profile (ATP acyl phosphate probe); assay type: binding; conditions: ALDH18A1, SEQ ID NO: 39, ATP BS
T13 construct: to get the native cell lysate; host or cells: A375 cell lysate

OLA1 = molecular target: T14, OLA1 (Homo sapiens, UniProt Q9NTK5); assay: ATPase profile (ATP acyl phosphate probe); assay type: binding; conditions: OLA1, SEQ ID NO: 150, ATP BS
T14 construct: to get the native cell lysate; endogenous in cells; host or cells: A375

HYOU1 = molecular target: T15, HYOU1 (Homo sapiens, UniProt Q9Y4L1); assay: ATPase profile (ATP acyl phosphate probe); assay type: binding
T15 construct: to get the native cell lysate; endogenous in cells; host or cells: A375

TOR2A, TOR2X = assay: ATPase profile (ATP acyl phosphate probe); assay type: binding; conditions: SEQ ID NO: 205, ATP BS
CMPK1 = molecular target: T16, CMPK1 (Homo sapiens, UniProt P30085); assay: ATPase profile (ATP acyl phosphate probe); assay type: binding; conditions: CMPK1, SEQ ID NO: 60, ATP BS
T16 construct: endogenous in cells; host or cells: A375 cell lysate

TRMU = molecular target: T17, TRMU (Homo sapiens, UniProt O75648); assay: ATPase profile (ATP acyl phosphate probe); assay type: binding
T17 construct: to get the native cell lysate; endogenous in cells; host or cells: A375 cell lysate

ATG7 = molecular target: T18, ATG7 (Homo sapiens, UniProt O95352); assay: ATPase profile (ATP acyl phosphate probe); assay type: binding
T18 construct: to get the native cell lysate; host or cells: A375 cell lysate

RAD17 = molecular target: T19, RAD17 (Homo sapiens, UniProt O75943); assay: ATPase profile (ATP acyl phosphate probe); assay type: binding; conditions: RAD17, SEQ ID NO: 181, ATP BS
T19 construct: to get the native cell lysate; endogenous in cells; host or cells: A375 cell lysate

CLPX = molecular target: T20, CLPX (Homo sapiens, UniProt O76031); assay: ATPase profile (ATP acyl phosphate probe); assay type: binding; conditions: SEQ ID NO: 59, ATP BS
T20 construct: endogenous in cells; host or cells: A375 cell lysate

AHCY = molecular target: T21, AHCY (Homo sapiens, UniProt P23526); assay: ATPase profile (ATP acyl phosphate probe); assay type: binding; conditions: SEQ ID NO: 30, ATP BS
T21 construct: to get the native cell lysate; host or cells: A375 cell lysate

HPRT1 = molecular target: T22, HPRT1 (Homo sapiens, UniProt P00492); assay: ATPase profile (ATP acyl phosphate probe); assay type: binding; conditions: HPRT1, SEQ ID NO: 93, ATP BS
T22 construct: to get the native cell lysate; endogenous in cells; host or cells: A375

PC = molecular target: T23, PC (Homo sapiens, UniProt P11498); assay: ATPase profile (ATP acyl phosphate probe); assay type: binding; conditions: SEQ ID NO: 152, ATP BS
T23 construct: to get the native cell lysate; endogenous in cells; host or cells: A375

ABCD4 = molecular target: T24, ABCD4 (Homo sapiens, UniProt O14678); assay: ATPase profile (ATP acyl phosphate probe); assay type: binding; conditions: ABCD4, SEQ ID NO: 14, ATP BS
T24 construct: to get the native cell lysate; host or cells: A375 cell lysate
T24 sequence (O14678 whole entry): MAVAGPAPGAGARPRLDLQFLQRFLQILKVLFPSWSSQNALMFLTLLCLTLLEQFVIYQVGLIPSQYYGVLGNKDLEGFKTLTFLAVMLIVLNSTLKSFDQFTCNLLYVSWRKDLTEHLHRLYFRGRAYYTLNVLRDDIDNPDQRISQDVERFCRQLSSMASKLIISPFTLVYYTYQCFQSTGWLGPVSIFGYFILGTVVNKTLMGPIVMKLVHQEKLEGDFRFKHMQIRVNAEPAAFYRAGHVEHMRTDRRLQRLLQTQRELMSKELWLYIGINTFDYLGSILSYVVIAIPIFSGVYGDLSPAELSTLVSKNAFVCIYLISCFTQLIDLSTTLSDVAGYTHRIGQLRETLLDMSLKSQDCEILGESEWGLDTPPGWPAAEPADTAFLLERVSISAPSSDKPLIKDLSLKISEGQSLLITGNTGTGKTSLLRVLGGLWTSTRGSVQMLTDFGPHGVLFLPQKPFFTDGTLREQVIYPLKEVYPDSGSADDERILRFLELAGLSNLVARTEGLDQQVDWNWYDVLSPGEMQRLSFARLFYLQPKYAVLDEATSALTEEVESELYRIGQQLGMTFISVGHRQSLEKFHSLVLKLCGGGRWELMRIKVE

T10 sequence (P0DMV8 whole entry): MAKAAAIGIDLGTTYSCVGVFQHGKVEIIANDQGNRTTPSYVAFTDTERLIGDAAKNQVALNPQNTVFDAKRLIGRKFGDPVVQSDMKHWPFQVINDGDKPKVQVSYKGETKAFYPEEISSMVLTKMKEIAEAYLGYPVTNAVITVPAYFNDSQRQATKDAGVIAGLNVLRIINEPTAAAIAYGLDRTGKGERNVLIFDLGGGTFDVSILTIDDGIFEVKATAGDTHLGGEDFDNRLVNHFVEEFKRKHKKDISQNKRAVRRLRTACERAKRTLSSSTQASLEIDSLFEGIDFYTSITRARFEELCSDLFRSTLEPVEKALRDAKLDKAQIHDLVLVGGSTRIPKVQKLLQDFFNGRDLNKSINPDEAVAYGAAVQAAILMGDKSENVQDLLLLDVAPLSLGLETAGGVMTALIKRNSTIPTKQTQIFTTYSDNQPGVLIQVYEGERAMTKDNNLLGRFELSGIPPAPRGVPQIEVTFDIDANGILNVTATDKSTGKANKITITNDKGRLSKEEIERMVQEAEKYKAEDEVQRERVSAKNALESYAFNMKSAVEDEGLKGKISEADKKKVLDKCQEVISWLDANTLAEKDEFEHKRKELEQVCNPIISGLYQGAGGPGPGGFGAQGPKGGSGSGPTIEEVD
T15 sequence (Q9Y4L1 33-999): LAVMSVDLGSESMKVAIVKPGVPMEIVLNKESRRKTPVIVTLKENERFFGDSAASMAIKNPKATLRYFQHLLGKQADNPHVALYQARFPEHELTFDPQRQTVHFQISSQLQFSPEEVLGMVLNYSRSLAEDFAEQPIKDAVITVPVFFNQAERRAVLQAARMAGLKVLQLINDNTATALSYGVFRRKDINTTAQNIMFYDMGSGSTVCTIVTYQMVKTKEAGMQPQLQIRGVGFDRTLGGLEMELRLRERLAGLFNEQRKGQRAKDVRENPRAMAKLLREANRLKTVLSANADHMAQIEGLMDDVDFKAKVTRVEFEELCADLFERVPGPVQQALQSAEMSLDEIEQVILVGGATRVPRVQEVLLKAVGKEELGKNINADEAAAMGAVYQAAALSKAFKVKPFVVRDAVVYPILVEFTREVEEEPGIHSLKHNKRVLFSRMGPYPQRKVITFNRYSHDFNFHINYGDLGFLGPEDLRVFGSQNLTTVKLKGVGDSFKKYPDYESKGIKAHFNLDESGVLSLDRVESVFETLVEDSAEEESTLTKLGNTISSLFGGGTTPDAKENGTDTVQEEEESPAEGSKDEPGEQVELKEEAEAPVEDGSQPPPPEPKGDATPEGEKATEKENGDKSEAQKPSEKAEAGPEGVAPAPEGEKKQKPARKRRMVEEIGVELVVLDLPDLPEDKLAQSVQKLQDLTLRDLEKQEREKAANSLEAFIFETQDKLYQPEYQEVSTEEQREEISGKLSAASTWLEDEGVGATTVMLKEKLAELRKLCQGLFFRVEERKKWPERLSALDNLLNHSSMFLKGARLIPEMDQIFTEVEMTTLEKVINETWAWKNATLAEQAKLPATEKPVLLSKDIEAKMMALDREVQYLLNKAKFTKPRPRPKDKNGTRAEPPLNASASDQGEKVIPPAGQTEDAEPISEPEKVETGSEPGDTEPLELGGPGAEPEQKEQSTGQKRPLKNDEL
T11 sequence (Q9HAB8 whole entry): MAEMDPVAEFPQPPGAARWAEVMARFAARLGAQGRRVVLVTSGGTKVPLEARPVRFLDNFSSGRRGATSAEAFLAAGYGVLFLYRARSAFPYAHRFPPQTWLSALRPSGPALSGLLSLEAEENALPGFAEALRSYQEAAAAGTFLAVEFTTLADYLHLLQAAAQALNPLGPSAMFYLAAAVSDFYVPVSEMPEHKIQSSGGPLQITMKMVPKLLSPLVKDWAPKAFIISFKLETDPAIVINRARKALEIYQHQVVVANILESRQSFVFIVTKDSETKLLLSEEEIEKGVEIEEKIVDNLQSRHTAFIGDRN
T5 sequence (P49915 whole entry): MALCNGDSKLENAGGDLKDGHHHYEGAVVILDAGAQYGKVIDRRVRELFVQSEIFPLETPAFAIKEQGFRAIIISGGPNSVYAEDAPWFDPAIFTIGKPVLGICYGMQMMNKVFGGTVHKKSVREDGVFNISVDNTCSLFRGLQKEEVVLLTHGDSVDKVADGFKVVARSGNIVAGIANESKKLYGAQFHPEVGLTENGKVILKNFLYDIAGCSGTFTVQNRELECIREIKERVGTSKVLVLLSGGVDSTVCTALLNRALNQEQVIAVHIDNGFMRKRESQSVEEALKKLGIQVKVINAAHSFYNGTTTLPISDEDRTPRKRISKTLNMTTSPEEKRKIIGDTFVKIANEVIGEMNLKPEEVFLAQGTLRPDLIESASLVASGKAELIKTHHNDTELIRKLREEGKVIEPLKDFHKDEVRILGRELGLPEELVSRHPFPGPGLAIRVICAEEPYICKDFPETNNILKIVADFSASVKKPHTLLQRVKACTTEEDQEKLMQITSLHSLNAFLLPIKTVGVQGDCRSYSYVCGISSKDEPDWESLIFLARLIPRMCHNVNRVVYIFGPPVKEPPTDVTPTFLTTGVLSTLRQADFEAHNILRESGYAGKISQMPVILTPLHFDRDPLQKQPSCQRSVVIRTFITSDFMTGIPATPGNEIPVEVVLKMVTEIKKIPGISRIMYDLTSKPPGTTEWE
T18 sequence (O95352 whole entry): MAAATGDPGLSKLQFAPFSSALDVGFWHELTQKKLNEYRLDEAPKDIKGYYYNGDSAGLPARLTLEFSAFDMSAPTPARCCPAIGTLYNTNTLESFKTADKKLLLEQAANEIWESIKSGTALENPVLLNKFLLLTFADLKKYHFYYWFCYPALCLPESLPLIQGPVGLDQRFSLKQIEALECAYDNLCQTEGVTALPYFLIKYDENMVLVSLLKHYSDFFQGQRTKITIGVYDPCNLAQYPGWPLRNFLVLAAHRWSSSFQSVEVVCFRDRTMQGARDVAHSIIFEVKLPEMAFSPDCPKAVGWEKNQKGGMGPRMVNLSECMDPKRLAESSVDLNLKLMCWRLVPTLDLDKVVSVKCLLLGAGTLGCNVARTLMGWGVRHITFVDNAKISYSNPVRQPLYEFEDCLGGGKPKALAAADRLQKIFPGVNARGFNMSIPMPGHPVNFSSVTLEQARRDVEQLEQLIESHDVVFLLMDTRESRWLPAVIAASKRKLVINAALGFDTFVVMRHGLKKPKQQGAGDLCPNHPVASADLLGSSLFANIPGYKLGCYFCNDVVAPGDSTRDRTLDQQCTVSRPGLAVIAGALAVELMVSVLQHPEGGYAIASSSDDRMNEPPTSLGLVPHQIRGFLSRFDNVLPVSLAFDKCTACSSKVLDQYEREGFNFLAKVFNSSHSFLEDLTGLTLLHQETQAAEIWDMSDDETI
T17 sequence (O75648 whole entry): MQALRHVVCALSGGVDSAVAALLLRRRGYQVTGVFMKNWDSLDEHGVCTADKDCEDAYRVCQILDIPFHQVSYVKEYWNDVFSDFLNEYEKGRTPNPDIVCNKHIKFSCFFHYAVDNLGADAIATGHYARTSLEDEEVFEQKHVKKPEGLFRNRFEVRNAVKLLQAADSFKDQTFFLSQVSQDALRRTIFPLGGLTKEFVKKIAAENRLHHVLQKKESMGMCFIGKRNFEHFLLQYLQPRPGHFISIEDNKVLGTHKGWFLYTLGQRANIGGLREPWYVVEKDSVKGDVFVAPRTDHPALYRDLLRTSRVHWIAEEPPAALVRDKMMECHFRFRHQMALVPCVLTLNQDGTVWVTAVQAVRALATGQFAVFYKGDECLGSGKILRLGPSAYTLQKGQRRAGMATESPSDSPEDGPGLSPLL
T12 sequence (Q13907 whole entry): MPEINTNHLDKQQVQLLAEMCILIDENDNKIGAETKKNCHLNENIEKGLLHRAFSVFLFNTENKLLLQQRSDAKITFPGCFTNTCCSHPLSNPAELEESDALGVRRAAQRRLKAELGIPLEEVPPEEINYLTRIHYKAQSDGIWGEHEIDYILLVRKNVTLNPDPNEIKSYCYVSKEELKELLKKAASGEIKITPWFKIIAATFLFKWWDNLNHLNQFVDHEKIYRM
T22 sequence (P00492 whole entry): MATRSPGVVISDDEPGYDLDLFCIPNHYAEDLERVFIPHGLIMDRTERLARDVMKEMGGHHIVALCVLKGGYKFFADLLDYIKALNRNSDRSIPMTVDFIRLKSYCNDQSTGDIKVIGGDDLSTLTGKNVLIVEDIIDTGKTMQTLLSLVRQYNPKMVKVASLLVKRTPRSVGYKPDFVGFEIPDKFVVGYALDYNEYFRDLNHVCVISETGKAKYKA
T16 sequence (P30085 whole entry): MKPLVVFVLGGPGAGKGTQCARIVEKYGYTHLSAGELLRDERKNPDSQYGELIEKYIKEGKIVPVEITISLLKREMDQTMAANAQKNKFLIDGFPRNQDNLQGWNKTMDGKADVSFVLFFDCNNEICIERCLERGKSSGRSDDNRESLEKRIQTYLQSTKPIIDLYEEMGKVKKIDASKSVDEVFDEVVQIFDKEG

Cn1c(=O)[nH]c2ccc(-c3cccc(C(=O)NC4CCn5ccnc5C4)c3)cc21 (stereo not shown) [Z36-MP5, 3-(3-methyl-2-oxo-2,3-dihydro-1H-benzo[d]imidazol-5-yl)-N-(5,6,7,8-tetrahydroimidazo[1,2-a]pyridin-7-yl)benzamide]
Inhibition (%) by 1 μM Z36-MP5 (SMC1A): 5.67% | Inhibition (%) by 1 μM Z36-MP5 (NME1, NME2): −1.52% | Inhibition (%) by 1 μM Z36-MP5 (XRCC5): 2.24% | Inhibition (%) by 1 μM Z36-MP5 (RFC5): 2.11% | Inhibition (%) by 1 μM Z36-MP5 (SMC4): −7.11% | half-life T1/2 [1]: 27 min | Inhibition (%) by 1 μM Z36-MP5 (PSMC4): 13.36% | Inhibition (%) by 1 μM Z36-MP5 (GMPS; SEQ ID NO: 85, labeling site Other): −13.99% | Inhibition (%) by 1 μM Z36-MP5 (GMPS; SEQ ID NO: 86, labeling site Other): 14.54% | Inhibition (%) by 1 μM Z36-MP5 (MTHFD1): −6.16% | Inhibition (%) by 1 μM Z36-MP5 (NADSYN1): −2.19% | Inhibition (%) by 1 μM Z36-MP5 (ABCC10): −3.83% | Inhibition (%) by 1 μM Z36-MP5 (DHX15): −5.22% | Inhibition (%) by 1 μM Z36-MP5 (HSPA1A; SEQ ID NO: 100, ATP BS): −9.44% | Inhibition (%) by 1 μM Z36-MP5 (HSPA1A; SEQ ID NO: 101, ATP BS): −15.23% | Inhibition (%) by 1 μM Z36-MP5 (PPCS; SEQ ID NO: 165, ATP BS): −7.44% | Inhibition (%) by 1 μM Z36-MP5 (PPCS; SEQ ID NO: 166, ATP BS): −9.61% | Inhibition (%) by 1 μM Z36-MP5 (IDI1): 5.48% | Inhibition (%) by 1 μM Z36-MP5 (ALDH18A1): −6.95% | Inhibition (%) by 1 μM Z36-MP5 (OLA1): −0.68% | Inhibition (%) by 1 μM Z36-MP5 (HYOU1; HYOU1, SEQ ID NO: 109, ATP BS): −13.34% | Inhibition (%) by 1 μM Z36-MP5 (HYOU1; HYOU1, SEQ ID NO: 110, ATP BS): −6.78% | Inhibition (%) by 1 μM Z36-MP5 (TOR2A, TOR2X): 0.38% | Inhibition (%) by 1 μM Z36-MP5 (CMPK1): 2.41% | Inhibition (%) by 1 μM Z36-MP5 (TRMU; SEQ ID NO: 211, ATP BS): −13.98% | Inhibition (%) by 1 μM Z36-MP5 (TRMU; SEQ ID NO: 212, ATP BS): −2.57% | Inhibition (%) by 1 μM Z36-MP5 (ATG7; ATG7, SEQ ID NO: 45, ATP BS): −0.18% | Inhibition (%) by 1 μM Z36-MP5 (ATG7; ATG7, SEQ ID NO: 46, ATP BS): −6.20% | Inhibition (%) by 1 μM Z36-MP5 (RAD17): 15.62% | Inhibition (%) by 1 μM Z36-MP5 (CLPX): 0.44% | Inhibition (%) by 1 μM Z36-MP5 (AHCY): −10.85% | Inhibition (%) by 1 μM Z36-MP5 (HPRT1): 12.92% | Inhibition (%) by 1 μM Z36-MP5 (PC): −15.19% | Inhibition (%) by 1 μM Z36-MP5 (ABCD4): 11.24%
